Reference: ChEMBL document CHEMBL5291721, “A preclinical secondary pharmacology resource illuminates target-adverse drug reaction associations of marketed drugs” (Nat Commun, 2023)

Legend:
[1] = biological target: T1, Muscarinic acetylcholine receptor M2 (Homo sapiens, UniProt P08172); format: functional, cell-based
T1 sequence (P08172 whole entry): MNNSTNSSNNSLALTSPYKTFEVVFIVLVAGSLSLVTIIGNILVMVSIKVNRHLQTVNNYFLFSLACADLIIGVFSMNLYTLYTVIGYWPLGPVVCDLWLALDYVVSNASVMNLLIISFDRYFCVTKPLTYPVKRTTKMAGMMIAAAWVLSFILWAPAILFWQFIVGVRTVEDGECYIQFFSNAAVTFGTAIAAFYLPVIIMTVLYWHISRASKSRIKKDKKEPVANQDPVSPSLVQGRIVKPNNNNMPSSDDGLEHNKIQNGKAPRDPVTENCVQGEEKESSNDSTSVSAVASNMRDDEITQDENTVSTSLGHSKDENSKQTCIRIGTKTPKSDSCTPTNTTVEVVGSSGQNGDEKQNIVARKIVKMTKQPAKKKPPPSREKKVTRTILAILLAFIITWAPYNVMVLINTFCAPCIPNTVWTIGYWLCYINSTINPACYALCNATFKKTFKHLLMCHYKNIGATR

[2] = biological target: Muscarinic acetylcholine receptor M3 (Homo sapiens, UniProt P20309)
D(3) dopamine receptor = D(3) dopamine receptor (Homo sapiens, UniProt P35462)
Vasopressin V1a receptor = Vasopressin V1a receptor (Homo sapiens, UniProt P37288)
[3] = biological target: T1, Muscarinic acetylcholine receptor M2; format: functional, cell-based; remark: listed apart in the source
[4] = biological target: Delta-type opioid receptor (Homo sapiens, UniProt P41143)
[5] = biological target: Neuronal acetylcholine receptor subunit alpha-4 (Homo sapiens, UniProt P43681)
[6] = biological target: T2, Neuropeptide Y receptor type 1 (Homo sapiens, UniProt P25929)
T2 sequence (P25929 whole entry): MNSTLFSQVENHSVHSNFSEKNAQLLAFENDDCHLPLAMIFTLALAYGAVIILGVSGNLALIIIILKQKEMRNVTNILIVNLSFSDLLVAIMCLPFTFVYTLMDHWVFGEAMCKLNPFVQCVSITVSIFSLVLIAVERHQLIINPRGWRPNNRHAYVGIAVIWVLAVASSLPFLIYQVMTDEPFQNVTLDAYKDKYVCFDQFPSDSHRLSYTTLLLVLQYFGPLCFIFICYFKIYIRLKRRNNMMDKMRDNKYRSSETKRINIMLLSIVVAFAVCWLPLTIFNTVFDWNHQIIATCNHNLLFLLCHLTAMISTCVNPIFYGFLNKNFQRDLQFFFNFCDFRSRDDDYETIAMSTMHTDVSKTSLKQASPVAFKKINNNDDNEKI

Thromboxane A2 receptor = biological target: T3, Thromboxane A2 receptor (Homo sapiens, UniProt P21731)
T3 sequence (P21731 whole entry): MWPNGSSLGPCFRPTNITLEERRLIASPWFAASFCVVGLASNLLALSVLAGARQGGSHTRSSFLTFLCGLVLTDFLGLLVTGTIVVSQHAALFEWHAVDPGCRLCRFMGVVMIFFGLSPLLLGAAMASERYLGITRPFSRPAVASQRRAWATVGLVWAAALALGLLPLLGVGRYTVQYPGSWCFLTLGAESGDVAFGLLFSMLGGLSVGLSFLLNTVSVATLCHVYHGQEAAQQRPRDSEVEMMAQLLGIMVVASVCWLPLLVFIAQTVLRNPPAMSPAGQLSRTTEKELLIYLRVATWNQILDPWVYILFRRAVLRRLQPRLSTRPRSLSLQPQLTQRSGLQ

Melanocortin receptor 3 = Melanocortin receptor 3 (Homo sapiens, UniProt P41968)
Progesterone receptor = biological target: T4, Progesterone receptor (Homo sapiens, UniProt P06401); format: functional
T4 sequence (P06401 whole entry): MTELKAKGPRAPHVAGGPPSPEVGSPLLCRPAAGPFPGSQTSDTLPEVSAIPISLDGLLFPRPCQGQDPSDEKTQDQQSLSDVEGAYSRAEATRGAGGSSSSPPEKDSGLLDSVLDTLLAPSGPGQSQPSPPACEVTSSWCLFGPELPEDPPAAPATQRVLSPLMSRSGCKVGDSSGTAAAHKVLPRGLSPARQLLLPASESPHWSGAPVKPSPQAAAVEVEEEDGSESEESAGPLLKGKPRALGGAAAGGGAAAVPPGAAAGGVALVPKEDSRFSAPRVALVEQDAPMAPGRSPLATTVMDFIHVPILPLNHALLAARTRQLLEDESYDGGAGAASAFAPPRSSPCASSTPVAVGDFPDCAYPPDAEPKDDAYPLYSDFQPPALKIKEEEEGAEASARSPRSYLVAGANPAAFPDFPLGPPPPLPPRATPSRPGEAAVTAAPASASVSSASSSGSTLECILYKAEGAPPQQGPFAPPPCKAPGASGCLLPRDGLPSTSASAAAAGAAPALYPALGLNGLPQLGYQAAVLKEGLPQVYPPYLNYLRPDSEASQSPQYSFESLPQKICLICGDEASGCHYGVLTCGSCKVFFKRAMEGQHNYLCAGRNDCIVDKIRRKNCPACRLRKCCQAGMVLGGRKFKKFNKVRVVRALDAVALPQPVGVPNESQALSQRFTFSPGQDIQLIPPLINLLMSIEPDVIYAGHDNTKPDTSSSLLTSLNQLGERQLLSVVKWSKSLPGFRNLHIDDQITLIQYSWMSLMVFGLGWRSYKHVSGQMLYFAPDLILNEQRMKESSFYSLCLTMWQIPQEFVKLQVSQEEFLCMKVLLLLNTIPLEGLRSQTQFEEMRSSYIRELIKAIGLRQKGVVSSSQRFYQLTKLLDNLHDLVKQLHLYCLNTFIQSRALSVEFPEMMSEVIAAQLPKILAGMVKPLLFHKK

[7] = biological target: Kappa-type opioid receptor (Homo sapiens, UniProt P41145)
[8] = biological target: Gamma-aminobutyric acid receptor subunit alpha-1 (Rattus norvegicus, UniProt P62813)
[9] = biological target: Voltage-gated inwardly rectifying potassium channel KCNH2 (Homo sapiens, UniProt Q12809); format: functional
Note: assay procedure not described here.

Melanocortin receptor 3, sequence (P41968 whole entry): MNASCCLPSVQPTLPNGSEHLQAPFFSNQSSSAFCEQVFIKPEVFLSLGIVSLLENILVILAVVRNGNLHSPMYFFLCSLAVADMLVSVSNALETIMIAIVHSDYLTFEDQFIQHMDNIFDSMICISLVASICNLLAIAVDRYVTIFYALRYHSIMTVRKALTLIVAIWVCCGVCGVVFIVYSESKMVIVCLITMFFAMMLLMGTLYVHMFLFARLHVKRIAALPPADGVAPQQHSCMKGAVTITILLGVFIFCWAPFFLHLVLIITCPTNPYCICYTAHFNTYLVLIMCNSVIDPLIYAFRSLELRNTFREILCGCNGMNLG
Kappa-type opioid receptor, sequence (P41145 whole entry): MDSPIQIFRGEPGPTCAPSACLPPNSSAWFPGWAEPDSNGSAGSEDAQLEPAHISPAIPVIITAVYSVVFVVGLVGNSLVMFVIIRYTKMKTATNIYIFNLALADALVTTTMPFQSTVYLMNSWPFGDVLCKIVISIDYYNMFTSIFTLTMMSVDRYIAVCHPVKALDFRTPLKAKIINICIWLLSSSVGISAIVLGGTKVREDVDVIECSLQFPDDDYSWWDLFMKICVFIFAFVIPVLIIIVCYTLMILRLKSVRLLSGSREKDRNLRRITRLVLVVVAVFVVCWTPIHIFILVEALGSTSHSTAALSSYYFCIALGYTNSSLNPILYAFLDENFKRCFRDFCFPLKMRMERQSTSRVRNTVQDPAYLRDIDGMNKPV
D(3) dopamine receptor, sequence (P35462 whole entry): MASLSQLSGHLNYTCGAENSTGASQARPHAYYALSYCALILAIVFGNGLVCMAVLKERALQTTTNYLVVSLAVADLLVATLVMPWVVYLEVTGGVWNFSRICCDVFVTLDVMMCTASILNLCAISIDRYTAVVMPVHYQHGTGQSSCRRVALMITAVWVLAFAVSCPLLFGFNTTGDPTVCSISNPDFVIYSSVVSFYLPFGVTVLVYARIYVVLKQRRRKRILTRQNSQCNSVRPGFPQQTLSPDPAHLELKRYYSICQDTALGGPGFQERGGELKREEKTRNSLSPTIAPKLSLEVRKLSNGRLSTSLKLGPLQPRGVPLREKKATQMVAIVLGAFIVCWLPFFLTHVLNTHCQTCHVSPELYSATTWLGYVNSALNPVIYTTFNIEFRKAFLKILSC
Muscarinic acetylcholine receptor M3, sequence (P20309 whole entry): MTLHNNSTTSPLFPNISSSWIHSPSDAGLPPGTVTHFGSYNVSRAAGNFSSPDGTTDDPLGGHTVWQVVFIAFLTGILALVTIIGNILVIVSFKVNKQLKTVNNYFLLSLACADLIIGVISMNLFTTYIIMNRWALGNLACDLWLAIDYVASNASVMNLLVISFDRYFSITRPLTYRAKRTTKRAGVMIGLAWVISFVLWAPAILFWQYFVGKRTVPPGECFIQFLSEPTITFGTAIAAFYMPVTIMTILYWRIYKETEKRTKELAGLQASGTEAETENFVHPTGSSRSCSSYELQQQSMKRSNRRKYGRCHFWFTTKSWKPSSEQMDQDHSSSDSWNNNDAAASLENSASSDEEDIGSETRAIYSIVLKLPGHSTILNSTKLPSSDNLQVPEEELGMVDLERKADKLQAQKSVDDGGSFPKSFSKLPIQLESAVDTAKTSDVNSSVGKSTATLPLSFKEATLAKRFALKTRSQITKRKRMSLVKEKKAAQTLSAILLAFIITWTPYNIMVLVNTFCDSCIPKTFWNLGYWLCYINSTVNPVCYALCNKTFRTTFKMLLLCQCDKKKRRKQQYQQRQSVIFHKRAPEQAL
Voltage-gated inwardly rectifying potassium channel KCNH2, sequence (Q12809 whole entry): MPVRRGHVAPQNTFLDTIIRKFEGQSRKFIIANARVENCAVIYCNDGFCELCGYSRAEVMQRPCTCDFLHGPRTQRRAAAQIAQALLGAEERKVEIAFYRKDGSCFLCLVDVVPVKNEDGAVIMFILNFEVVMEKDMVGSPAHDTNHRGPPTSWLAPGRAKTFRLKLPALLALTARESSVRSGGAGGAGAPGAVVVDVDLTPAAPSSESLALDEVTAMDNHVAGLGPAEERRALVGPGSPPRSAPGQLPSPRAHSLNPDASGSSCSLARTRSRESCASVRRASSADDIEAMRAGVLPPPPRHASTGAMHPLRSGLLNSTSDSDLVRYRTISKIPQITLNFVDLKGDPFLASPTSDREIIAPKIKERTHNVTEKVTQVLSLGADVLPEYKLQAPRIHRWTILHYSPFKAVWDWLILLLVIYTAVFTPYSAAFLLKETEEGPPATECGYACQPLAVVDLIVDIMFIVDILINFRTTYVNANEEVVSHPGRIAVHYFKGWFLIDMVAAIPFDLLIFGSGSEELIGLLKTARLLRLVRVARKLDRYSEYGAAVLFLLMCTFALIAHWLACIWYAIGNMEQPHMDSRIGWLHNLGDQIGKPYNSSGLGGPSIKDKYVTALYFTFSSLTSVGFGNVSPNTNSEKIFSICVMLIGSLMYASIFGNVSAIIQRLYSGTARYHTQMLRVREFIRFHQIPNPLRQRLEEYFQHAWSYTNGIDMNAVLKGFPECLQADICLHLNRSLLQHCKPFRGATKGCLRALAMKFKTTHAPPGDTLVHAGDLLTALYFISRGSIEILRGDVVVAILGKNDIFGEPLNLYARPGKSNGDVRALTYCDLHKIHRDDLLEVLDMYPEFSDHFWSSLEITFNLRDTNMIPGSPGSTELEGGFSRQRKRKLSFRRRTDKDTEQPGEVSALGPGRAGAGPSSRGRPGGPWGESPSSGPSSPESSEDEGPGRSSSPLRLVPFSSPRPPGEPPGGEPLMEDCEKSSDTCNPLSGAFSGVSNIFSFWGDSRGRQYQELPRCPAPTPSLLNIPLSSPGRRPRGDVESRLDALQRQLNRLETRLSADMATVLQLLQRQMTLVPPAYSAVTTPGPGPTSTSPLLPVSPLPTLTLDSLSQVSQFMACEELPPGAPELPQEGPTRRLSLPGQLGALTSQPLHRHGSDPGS
Gamma-aminobutyric acid receptor subunit alpha-1, sequence (P62813 whole entry): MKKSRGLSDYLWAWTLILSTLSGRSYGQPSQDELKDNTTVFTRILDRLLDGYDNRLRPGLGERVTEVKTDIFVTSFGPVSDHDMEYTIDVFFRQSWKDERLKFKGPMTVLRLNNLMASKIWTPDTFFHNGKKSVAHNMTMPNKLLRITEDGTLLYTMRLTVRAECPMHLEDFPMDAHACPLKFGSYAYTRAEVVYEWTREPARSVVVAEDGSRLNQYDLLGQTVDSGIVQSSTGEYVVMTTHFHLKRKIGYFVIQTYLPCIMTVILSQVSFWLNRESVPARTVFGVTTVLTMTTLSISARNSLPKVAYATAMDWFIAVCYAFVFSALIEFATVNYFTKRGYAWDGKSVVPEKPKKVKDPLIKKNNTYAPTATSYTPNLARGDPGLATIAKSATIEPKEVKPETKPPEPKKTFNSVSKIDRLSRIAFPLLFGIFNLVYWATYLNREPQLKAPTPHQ
Neuronal acetylcholine receptor subunit alpha-4, sequence (P43681 whole entry): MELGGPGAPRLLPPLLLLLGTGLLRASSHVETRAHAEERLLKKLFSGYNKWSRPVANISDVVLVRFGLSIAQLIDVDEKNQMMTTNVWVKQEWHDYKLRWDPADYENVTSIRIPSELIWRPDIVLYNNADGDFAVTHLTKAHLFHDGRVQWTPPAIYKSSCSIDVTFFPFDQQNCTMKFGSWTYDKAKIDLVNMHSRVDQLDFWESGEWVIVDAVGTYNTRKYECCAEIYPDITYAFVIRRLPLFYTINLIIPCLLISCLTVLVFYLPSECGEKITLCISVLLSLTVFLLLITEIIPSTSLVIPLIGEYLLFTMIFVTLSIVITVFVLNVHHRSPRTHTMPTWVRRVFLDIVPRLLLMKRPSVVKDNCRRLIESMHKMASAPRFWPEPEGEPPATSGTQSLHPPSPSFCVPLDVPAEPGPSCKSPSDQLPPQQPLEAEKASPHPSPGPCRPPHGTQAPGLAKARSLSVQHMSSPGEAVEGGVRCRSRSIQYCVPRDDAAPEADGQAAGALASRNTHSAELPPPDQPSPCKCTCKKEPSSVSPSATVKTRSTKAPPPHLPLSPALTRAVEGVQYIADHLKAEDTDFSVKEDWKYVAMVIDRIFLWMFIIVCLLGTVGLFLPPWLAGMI
Delta-type opioid receptor, sequence (P41143 whole entry): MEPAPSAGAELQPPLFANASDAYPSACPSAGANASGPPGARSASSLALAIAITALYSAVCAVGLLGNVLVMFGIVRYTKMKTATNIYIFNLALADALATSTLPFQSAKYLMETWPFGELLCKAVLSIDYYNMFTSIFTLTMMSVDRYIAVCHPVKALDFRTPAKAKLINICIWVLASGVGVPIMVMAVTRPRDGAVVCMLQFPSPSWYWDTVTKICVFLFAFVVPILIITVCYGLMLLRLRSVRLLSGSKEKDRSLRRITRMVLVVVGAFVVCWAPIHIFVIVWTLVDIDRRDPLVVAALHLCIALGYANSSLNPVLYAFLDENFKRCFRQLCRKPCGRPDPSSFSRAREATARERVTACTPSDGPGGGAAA
Vasopressin V1a receptor, sequence (P37288 whole entry): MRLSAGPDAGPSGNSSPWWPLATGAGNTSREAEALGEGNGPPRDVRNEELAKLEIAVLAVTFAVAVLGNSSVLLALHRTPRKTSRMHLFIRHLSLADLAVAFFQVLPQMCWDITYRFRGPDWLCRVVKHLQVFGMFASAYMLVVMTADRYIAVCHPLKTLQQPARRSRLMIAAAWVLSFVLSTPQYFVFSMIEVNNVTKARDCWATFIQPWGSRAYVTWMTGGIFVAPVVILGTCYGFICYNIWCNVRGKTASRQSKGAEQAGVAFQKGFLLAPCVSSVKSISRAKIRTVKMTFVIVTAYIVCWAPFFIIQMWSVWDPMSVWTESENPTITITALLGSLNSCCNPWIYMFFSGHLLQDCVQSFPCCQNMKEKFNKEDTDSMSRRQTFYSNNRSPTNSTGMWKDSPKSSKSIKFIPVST

Compound	AC50 [1] [µM]	AC50 [2] [µM]	AC50 (D(3) dopamine receptor) [µM]	AC50 (Vasopressin V1a receptor) [µM]	AC50 [3] [µM]	AC50 [4] [µM]	AC50 [5] [µM]	AC50 [6] [µM]	AC50 (Thromboxane A2 receptor) [µM]	AC50 (Melanocortin receptor 3) [µM]	AC50 (Progesterone receptor) [µM]	AC50 [7] [µM]	AC50 [8] [µM]	AC50 ([9]; read-out: AC50) [µM]	AC50 ([9]; human, cellular components) [µM]
C#CCN[C@@H]1CCc2ccccc21 [RASAGILINE]	> 30	> 30	> 30	> 30	> 30	> 30	> 30	> 30	> 30	> 30	> 30	> 30	> 30	> 30	–
CC(=O)NS(=O)(=O)c1ccc(N)cc1 [SULFACETAMIDE]	> 10	> 30	> 30	> 10	> 10	> 30	> 10	> 10	> 10	> 10	> 10	> 10	> 10	> 30	–
Cc1c(Cl)cccc1Nc1ccccc1C(=O)O [TOLFENAMIC ACID]	> 30	> 30	> 30	> 30	> 30	> 30	> 30	> 30	> 30	> 30	> 30	> 30	> 30	> 30	–
COc1ccc(C(=O)N2CCN(c3ccc4c(c3)CCC(=O)N4)CC2)cc1OC [VESNARINONE]	> 30	> 30	> 30	> 30	> 30	> 30	> 30	> 30	> 30	> 30	12	> 30	> 30	> 30	–
CN1CCN(C(=O)OC2c3nccnc3C(=O)N2c2ccc(Cl)cn2)CC1 (centres undefined) [ZOPICLONE]	> 10	> 30	> 10	> 30	> 10	> 10	> 30	> 30	> 30	> 30	> 30	> 10	> 10	> 30	–
TOCOFERSOLAN	> 30	> 30	> 30	> 30	> 30	> 30	> 30	> 30	> 30	> 30	> 30	> 30	> 30	–	> 30
